{
  "source": "patent US8192962B2",
  "about": "“Processes for detecting toxic substances” (Daikin Industries, Ltd., priority 2001, dated 2012)",
  "system": "Genes belonging to other category",
  "test": "DNA chip mRNA expression in yeast, genes belonging to other category (Table 9)",
  "assay_type": "cell-based, Saccharomyces cerevisiae S288C",
  "in_short": "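Untreated cultures served as reference for log-phase S288C yeast given a growth-inhibiting, non-lethal toxicant dose for 2 h at 25° C. in YPD. Gene expression was measured on a whole-genome DNA chip from Cy3/Cy5-labeled cDNA.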",
  "data": [
    {"smiles": "[Cl][Hg][Cl]", "note": "[(3), HgCl2]", "values": [
      {"measurement": "The level of expressed mRNA in the presence of chemical substance/The level of expressed mRNA in the absence of chemical substance", "setting": "yeast gene YAR010C", "result": 1.2},
      {"measurement": "The level of expressed mRNA in the presence of chemical substance/The level of expressed mRNA in the absence of chemical substance", "setting": "yeast gene YBL005W-A", "result": 0.5},
      {"measurement": "The level of expressed mRNA in the presence of chemical substance/The level of expressed mRNA in the absence of chemical substance", "setting": "yeast gene YBL041W", "result": 0.9},
      {"measurement": "The level of expressed mRNA in the presence of chemical substance/The level of expressed mRNA in the absence of chemical substance", "setting": "yeast gene YBL043W", "result": 1.1},
      {"measurement": "The level of expressed mRNA in the presence of chemical substance/The level of expressed mRNA in the absence of chemical substance", "setting": "yeast gene YBL078C", "result": 1.3},
      {"measurement": "The level of expressed mRNA in the presence of chemical substance/The level of expressed mRNA in the absence of chemical substance", "setting": "yeast gene YBR214W", "result": 5.7},
      {"measurement": "The level of expressed mRNA in the presence of chemical substance/The level of expressed mRNA in the absence of chemical substance", "setting": "yeast gene YCL020W", "result": 0.5},
      {"measurement": "The level of expressed mRNA in the presence of chemical substance/The level of expressed mRNA in the absence of chemical substance", "setting": "yeast gene YCL027W", "result": 1.0},
      {"measurement": "The level of expressed mRNA in the presence of chemical substance/The level of expressed mRNA in the absence of chemical substance", "setting": "yeast gene YCR004C", "result": 12.0},
      {"measurement": "The level of expressed mRNA in the presence of chemical substance/The level of expressed mRNA in the absence of chemical substance", "setting": "yeast gene YCR071C", "result": 0.9},
      {"measurement": "The level of expressed mRNA in the presence of chemical substance/The level of expressed mRNA in the absence of chemical substance", "setting": "yeast gene YCR088W", "result": 1.2},
      {"measurement": "The level of expressed mRNA in the presence of chemical substance/The level of expressed mRNA in the absence of chemical substance", "setting": "yeast gene YDL008W", "result": 1.0},
      {"measurement": "The level of expressed mRNA in the presence of chemical substance/The level of expressed mRNA in the absence of chemical substance", "setting": "yeast gene YDL238C", "result": 1.1},
      {"measurement": "The level of expressed mRNA in the presence of chemical substance/The level of expressed mRNA in the absence of chemical substance", "setting": "yeast gene YDR055W", "result": 2.2},
      {"measurement": "The level of expressed mRNA in the presence of chemical substance/The level of expressed mRNA in the absence of chemical substance", "setting": "yeast gene YDR084C", "result": 1.5},
      {"measurement": "The level of expressed mRNA in the presence of chemical substance/The level of expressed mRNA in the absence of chemical substance", "setting": "yeast gene YDR085C", "result": 1.6},
      {"measurement": "The level of expressed mRNA in the presence of chemical substance/The level of expressed mRNA in the absence of chemical substance", "setting": "yeast gene YDR104C", "result": 1.2},
      {"measurement": "The level of expressed mRNA in the presence of chemical substance/The level of expressed mRNA in the absence of chemical substance", "setting": "yeast gene YDR115W", "result": 0.6},
      {"measurement": "The level of expressed mRNA in the presence of chemical substance/The level of expressed mRNA in the absence of chemical substance", "setting": "yeast gene YDR259C", "result": 0.4},
      {"measurement": "The level of expressed mRNA in the presence of chemical substance/The level of expressed mRNA in the absence of chemical substance", "setting": "yeast gene YDR315C", "result": 1.0},
      {"measurement": "The level of expressed mRNA in the presence of chemical substance/The level of expressed mRNA in the absence of chemical substance", "setting": "yeast gene YDR358W", "result": 0.7},
      {"measurement": "The level of expressed mRNA in the presence of chemical substance/The level of expressed mRNA in the absence of chemical substance", "setting": "yeast gene YDR388W", "result": 1.2},
      {"measurement": "The level of expressed mRNA in the presence of chemical substance/The level of expressed mRNA in the absence of chemical substance", "setting": "yeast gene YDR432W", "result": 1.0},
      {"measurement": "The level of expressed mRNA in the presence of chemical substance/The level of expressed mRNA in the absence of chemical substance", "setting": "yeast gene YDR481C", "result": 1.3},
      {"measurement": "The level of expressed mRNA in the presence of chemical substance/The level of expressed mRNA in the absence of chemical substance", "setting": "yeast gene YDR510W", "result": 1.5},
      {"measurement": "The level of expressed mRNA in the presence of chemical substance/The level of expressed mRNA in the absence of chemical substance", "setting": "yeast gene YEL042W", "result": 1.7},
      {"measurement": "The level of expressed mRNA in the presence of chemical substance/The level of expressed mRNA in the absence of chemical substance", "setting": "yeast gene YEL066W", "result": 1.5},
      {"measurement": "The level of expressed mRNA in the presence of chemical substance/The level of expressed mRNA in the absence of chemical substance", "setting": "yeast gene YER039C", "result": 1.0},
      {"measurement": "The level of expressed mRNA in the presence of chemical substance/The level of expressed mRNA in the absence of chemical substance", "setting": "yeast gene YER107C", "result": 1.0},
      {"measurement": "The level of expressed mRNA in the presence of chemical substance/The level of expressed mRNA in the absence of chemical substance", "setting": "yeast gene YER130C", "result": 0.5},
      {"measurement": "The level of expressed mRNA in the presence of chemical substance/The level of expressed mRNA in the absence of chemical substance", "setting": "yeast gene YFL022C", "result": 1.5},
      {"measurement": "The level of expressed mRNA in the presence of chemical substance/The level of expressed mRNA in the absence of chemical substance", "setting": "yeast gene YFL028C", "result": 0.7},
      {"measurement": "The level of expressed mRNA in the presence of chemical substance/The level of expressed mRNA in the absence of chemical substance", "setting": "yeast gene YFL043C", "result": 0.6},
      {"measurement": "The level of expressed mRNA in the presence of chemical substance/The level of expressed mRNA in the absence of chemical substance", "setting": "yeast gene YGL158W", "result": 1.9},
      {"measurement": "The level of expressed mRNA in the presence of chemical substance/The level of expressed mRNA in the absence of chemical substance", "setting": "yeast gene YGL229C", "result": 0.9},
      {"measurement": "The level of expressed mRNA in the presence of chemical substance/The level of expressed mRNA in the absence of chemical substance", "setting": "yeast gene YGR136W", "result": 1.3},
      {"measurement": "The level of expressed mRNA in the presence of chemical substance/The level of expressed mRNA in the absence of chemical substance", "setting": "yeast gene YGR189C", "result": 1.5},
      {"measurement": "The level of expressed mRNA in the presence of chemical substance/The level of expressed mRNA in the absence of chemical substance", "setting": "yeast gene YGR213C", "result": 1.0},
      {"measurement": "The level of expressed mRNA in the presence of chemical substance/The level of expressed mRNA in the absence of chemical substance", "setting": "yeast gene YGR257C", "result": 0.9},
      {"measurement": "The level of expressed mRNA in the presence of chemical substance/The level of expressed mRNA in the absence of chemical substance", "setting": "yeast gene YHR004C", "result": 0.8},
      {"measurement": "The level of expressed mRNA in the presence of chemical substance/The level of expressed mRNA in the absence of chemical substance", "setting": "yeast gene YHR071W", "result": 0.6},
      {"measurement": "The level of expressed mRNA in the presence of chemical substance/The level of expressed mRNA in the absence of chemical substance", "setting": "yeast gene YHR139C", "result": 6.8},
      {"measurement": "The level of expressed mRNA in the presence of chemical substance/The level of expressed mRNA in the absence of chemical substance", "setting": "yeast gene YHR142W", "result": 2.1},
      {"measurement": "The level of expressed mRNA in the presence of chemical substance/The level of expressed mRNA in the absence of chemical substance", "setting": "yeast gene YIL123W", "result": 1.2},
      {"measurement": "The level of expressed mRNA in the presence of chemical substance/The level of expressed mRNA in the absence of chemical substance", "setting": "yeast gene YIL140W", "result": 1.5},
      {"measurement": "The level of expressed mRNA in the presence of chemical substance/The level of expressed mRNA in the absence of chemical substance", "setting": "yeast gene YJL073W", "result": 2.5},
      {"measurement": "The level of expressed mRNA in the presence of chemical substance/The level of expressed mRNA in the absence of chemical substance", "setting": "yeast gene YJL089W", "result": 1.0},
      {"measurement": "The level of expressed mRNA in the presence of chemical substance/The level of expressed mRNA in the absence of chemical substance", "setting": "yeast gene YJL116C", "result": 1.3},
      {"measurement": "The level of expressed mRNA in the presence of chemical substance/The level of expressed mRNA in the absence of chemical substance", "setting": "yeast gene YJR004C", "result": 3.4},
      {"measurement": "The level of expressed mRNA in the presence of chemical substance/The level of expressed mRNA in the absence of chemical substance", "setting": "yeast gene YJR086W", "result": 0.8}
    ]}
  ]
}
